Assay results: US6348477B1, “Anti-herpesvirus compounds and methods for identifying, making and using same” (Boehringer Ingelheim(Canada) Ltd., priority 1995, dated 2002)

Experiments:
HSV-1 strain F or KOS = assay: Inhibition of herpes simplex virus (HSV-1) replication in cell culture (BHK-21 cells, glycoprotein C ELISA); format: cell-based; details: Human alphaherpesvirus 1, BHK-21; Group 1 Table 1
Procedure: B) Inhibition of Herpes Simplex Virus (HSV-1) Replication in Cell Culture
Assay: BHK-21 cells clone 13 (ATCC CCL10) were incubated for two days in 850 cm^2 roller bottles (2×10^7 cells/bottle) with α-MEM medium (Gibco Canada Inc., Burlington, Ontario, Canada) supplemented with 8% (v/v) fetal bovine serum (FBS, Gibco Canada, Inc.). The cells were trypsinized and then 3,000 cells in 100 μL of fresh medium were transferred into each well of a 96-well microtiter plate. The cells were incubated at 37° for a period of 3 days to reach a density of 50,000 cells per well. The cells were washed twice with 100 μL of α-MEM supplemented with 2% heat inactivated FBS and incubated for 1-2 hours in 100 μL of the same medium.
Thereafter, the cells were infected with HSV-1 strain F or KOS (multiplicity of infection=0.05 PFU/cell) in 50 μL of α-MEM supplemented with 2% heat inactivated FBS. Following one hour of virus absorption at 37°, the medium was removed and the cells were washed with α-MEM supplemented with 2% heat inactivated FBS (2×100 μL). The cells were incubated with or without 100 μL of the appropriate concentration of test reagent in α-MEM medium supplemented with 2% heat inactivated FBS. After 24 hours of incubation at 37°, the extent of viral replication was determined by an ELISA assay; for instance, the following assay that detects the late glycoprotein C of HSV-1.
Cells were fixed in the microtiter plate with 100 μL of 0.063% glutaraldehyde in phosphate buffered saline for 30 min at room temperature. The microtiter plate was then washed once with casein blocking solution and blocked with 200 μL of the same solution for one hour at room temperature. Thereafter, 100 μL of mAb C11 recognizing the glycoprotein C of HSV-1 (see E. Trybala et al., Journal of General Virology, 1994, 75, 743) was added to each well for two hours at room temperature. The plate was washed three times with phosphate buffered saline containing 0.05% polyoxyethylene (20) sorbitan monooleate. The cells were incubated with 100 μL of sheep anti-mouse IgG horseradish peroxidase for one hour at room temperature in the dark.
The plate was washed three times with 200 μL of the above-noted phosphate buffer saline preparation, and then once with 0.1 M sodium citrate (pH 4.5). Thereafter, 100 μL of orthophenylenediamine dihydrochloride (OPD, Gibco, Canada Inc.) was added to each well. The plate was agitated on a microplate shaker for 30 min in the dark. Color development was monitored at 450 nm using a microplate spectrophotometer.
SAS was used to calculate % inhibition of viral replication and to generate EC50 values.

HCMV (strain AD169) = assay: Inhibition of HCMV replication, plaque reduction assay (PRA, Hs-68 cells); format: cell-based, human cytomegalovirus; details: Human betaherpesvirus 5, AD169, Hs68; Group 1 Table 1; read-out: PRA CMV EC50
Summary of the method: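 Hs-68 cells infected with about 50 PFU HCMV AD169 (2 h adsorption, 37°), then incubated with compound in 5% inactivated-FBS medium for 4 days, refed with fresh compound, 4 more days. Crystal violet-stained plaques counted; EC50 from percent plaque reduction versus untreated.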

EC50 (HSV-1 strain F or KOS): 210 nM | EC50 (HCMV (strain AD169)): 93 µM
Structure (SMILES): Nc1nc(-c2ccc(NC(=O)CN(CCc3ccccc3)C(=O)c3cccnc3)cc2)cs1 [Example 67]
